# From ChEMBL document CHEMBL6182842, “Progress in the development of macrophage migration inhibitory factor small-molecule inhibitors” (Eur J Med Chem, 2025)
# Experiments:
# [1] = biological target: T1, D-dopachrome decarboxylase (Homo sapiens, UniProt P30046); experiment: Inhibition of human DDT extracted from Escherichia coli
# [2] = biological target: T1, D-dopachrome decarboxylase; experiment: Inhibition of wild type human DDT tautomerase activity at 100 uM relative to control
# [3] = biological target: T2, Macrophage migration inhibitory factor (Homo sapiens, UniProt P14174); experiment: Inhibition of human recombinant MIF extracted from Escherichia coli BL21 (DE3)
# T2 sequence (P14174 whole entry): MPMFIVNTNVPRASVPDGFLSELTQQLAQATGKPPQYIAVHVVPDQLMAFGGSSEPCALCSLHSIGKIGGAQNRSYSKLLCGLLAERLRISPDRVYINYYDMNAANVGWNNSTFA
# [4] = biological target: T3, Macrophage migration inhibitory factor (Homo sapiens) (UniProt P14174); experiment: Potency index, ratio of ISO-1 IC50 to test compound IC50 for inhibition of human recombinant MIF
# T3 sequence (whole entry): T2 sequence (P14174 whole entry)
# [5] = biological target: T2, Macrophage migration inhibitory factor; experiment: Binding affinity to human recombinant MIF extracted from Escherichia coli BL21 (DE3) assessed as inhibition constant
# [6] = biological target: T2, Macrophage migration inhibitory factor; experiment: Inhibition of human recombinant MIF tautomerase activity
# [7] = biological target: T2, Macrophage migration inhibitory factor; experiment: Inhibition of human recombinant MIF incubated for 30 mins by microplate reader assay
# [8] = biological target: T1, D-dopachrome decarboxylase; experiment: Binding affinity to human DDT extracted from Escherichia coli assessed as inhibition constant
# [9] = biological target: T2, Macrophage migration inhibitory factor; experiment: Inhibition of human full length MIF extracted from Escherichia coli BL21 (DE3) by UV absorbance based analysis
# [10] = biological target: T2, Macrophage migration inhibitory factor; experiment: Inhibition of MIF (unknown origin)
# [11] = species on record: Homo sapiens; experiment: Selectivity ratio of Ki for wild type human DDT to Ki for wild type human MIF
# [12] = biological target: T2, Macrophage migration inhibitory factor; experiment: Binding affinity to wild type human MIF extracted from Escherichia coli BL 21 (DE3) assessed as inhibition constant
# T1 sequence (P30046 whole entry): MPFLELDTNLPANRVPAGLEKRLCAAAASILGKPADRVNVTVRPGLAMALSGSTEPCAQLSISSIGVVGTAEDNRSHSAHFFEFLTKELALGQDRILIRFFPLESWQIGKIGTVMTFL
smiles,measurement,setting,value
Cc1cc(-c2ccccc2)ncn1,IC50,[1],> 500 µM
O=C(O)c1ccc(C(=O)O)cc1,inhibition,[2],> 75%
C[C@@H]1O[C@@H](O[C@H]2[C@H](Oc3cc(O)c4c(c3)O[C@@H](c3ccc(O)cc3)CC4=O)O[C@H](CO)[C@@H](O)[C@@H]2O)[C@H](O)[C@H](O)[C@H]1O,IC50,[3],51.4 µM
same,Ratio IC50,[4],13.3
same,Ki,[5],43.5 µM
Cn1cccc1/C=C1\CCc2ccccc2C1=O,IC50,[6],23.8 µM
O=C1/C(=C/c2ccco2)CCc2ccccc21,IC50,[6],57.7 µM
O=C1/C(=C/c2ccccc2)CCCc2ccccc21,IC50,[6],84 µM
O=C1/C(=C/c2ccccc2)CCc2ccccc21,IC50,[6],127 µM
O=C(O)c1ccccn1,inhibition,[2],> 75%
O=C(CSc1cc(-c2ccccc2)ncn1)c1ccc(O)cc1O,IC50,[7],9.49 µM
O=c1c(O)c(-c2ccc(O)cc2)oc2cc(O)cc(O)c12 [KAEMPFEROL],IC50,[3],189 µM
same,Ratio IC50,[4],17.2
O=C(O)c1cccc(-c2cc(C(=O)O)ncc2C(=O)O)c1,Ki,[8],33 µM
O=c1c(O)c(-c2ccc(O)cc2O)oc2cc(O)cc(O)c12 [MORIN],IC50,[3],11 µM
same,Ratio IC50,[4],6.3
same,Ki,[5],8.95 µM
COc1ccccc1/C=C1\COc2ccccc2C1=O,IC50,[6],4.31 µM
O=c1oc2ccc(F)cc2cc1-c1nc(-c2cccs2)no1,IC50,[7],7.57 µM
Cc1cc(C(c2ccccn2)N2CCOCC2)c(NC(=O)c2ccco2)s1 (centres undefined),IC50,[9],6.44 µM
O=C1/C(=C/c2ccncc2)CCc2ccccc21,IC50,[6],21 µM
COc1cc(/C=C2\CCc3cc(O)ccc3C2=O)ccc1O,IC50,[6],4.31 µM
c1ccc(-c2ccncc2)cc1,inhibition,[2],> 100%
Cc1ccc(/C=C2\CCc3ccccc3C2=O)cc1,IC50,[6],16.5 µM
Nc1ccccc1NC(=O)c1ccc(NC(=O)Cc2ccc(N3Cc4ccc(O)cc4OC3=O)cc2)cc1,IC50,[10],0.81 µM
O=C1/C(=C/c2ccc3cc[nH]c3c2)CCc2ccccc21,IC50,[6],58.8 µM
O=c1c(-c2c(O)cc(O)c3c(=O)cc(-c4ccc(O)cc4)oc23)c(-c2ccc(O)cc2)oc2cc(O)cc(O)c12,IC50,[3],13.3 µM
same,Ki,[5],10.1 µM
COc1ccc(C(=O)Nc2nnc(-c3ccco3)o2)c(OC)c1,IC50,[9],6.87 µM
CCC(CC)c1nnc(NC(=O)Oc2ccccc2)s1,IC50,[7],12 µM
O=C(O)c1cccnc1,inhibition,[2],> 100%
O=C(CC1(O)C(=O)N(Cc2ccccc2Cl)c2ccccc21)C1Cc2ccccc2OC1=O (centres undefined),IC50,[7],7.55 µM
"O=C(O)c1ccc(C(=O)O)nc1 [PYRIDINE-2,5-DICARBOXYLIC ACID]",inhibition,[2],< 25%
same,Ratio Ki,[11],79
same,Ki,[12],17.2 µM
COC(=O)c1ccc(O)c2nc3c(C=O)c(O)cc(O)c3nc12 [LOMOFUNGIN],IC50,[10],0.47 µM
Cc1c(C(=O)c2ccc(Cl)cc2)oc2cc(N)ccc12,IC50,[7],14 µM
CC(=O)NS(=O)(=O)c1ccc(NC(=O)CC(C)(C)C)cc1,IC50,[7],1.22 µM
O=C1/C(=C/c2cccnc2)CCc2ccccc21,IC50,[6],20.3 µM
